Measured values from patent US10126303B2, “Methods for identifying compounds as modulators of SLC38A9 interactions” (Whitehead Institute for Biomedical Research, priority 2014, dated 2018).
In brackets after ≈: the same amount, converted by molar mass.

T1: SLC38A9.1 (Homo sapiens, UniProt Q8NBW4)
T1 construct: made in house; host or cells: HEK-293T cells stably expressing FLAG-SLC38A9.1
T1 sequence (Q8NBW4 1-561): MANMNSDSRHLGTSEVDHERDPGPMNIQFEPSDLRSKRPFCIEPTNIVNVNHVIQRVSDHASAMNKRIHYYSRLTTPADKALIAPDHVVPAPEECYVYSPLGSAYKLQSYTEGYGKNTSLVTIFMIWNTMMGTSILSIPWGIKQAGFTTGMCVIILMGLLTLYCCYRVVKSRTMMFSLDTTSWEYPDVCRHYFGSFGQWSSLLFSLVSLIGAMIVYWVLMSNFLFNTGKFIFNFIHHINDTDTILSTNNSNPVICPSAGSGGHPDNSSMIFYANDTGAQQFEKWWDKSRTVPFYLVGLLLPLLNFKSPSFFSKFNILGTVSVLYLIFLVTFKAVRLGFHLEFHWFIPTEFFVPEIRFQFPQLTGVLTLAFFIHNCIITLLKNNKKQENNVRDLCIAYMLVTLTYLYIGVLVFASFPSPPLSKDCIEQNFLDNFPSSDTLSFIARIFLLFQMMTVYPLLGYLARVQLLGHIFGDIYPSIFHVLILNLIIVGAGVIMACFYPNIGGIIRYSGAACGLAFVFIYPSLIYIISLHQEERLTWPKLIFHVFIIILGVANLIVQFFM

B1: SLC38A9.1 (Homo sapiens) (protein)
chain: T1 sequence (Q8NBW4 1-561)
notes: made in house; host or cells: HEK-293T cells stably expressing FLAG-SLC38A9.1

Columns and labels:
SLC38A9.1 = target: T1, SLC38A9.1; test: Competition of [3H]arginine transport by SLC38A9.1 proteoliposomes using unlabeled amino acids; assay type: biochemical; details: 0.5 μM [3H]arginine; 100 mM unlabeled amino acid; 75 min
Experimental: (§1) SLC38A9.1 proteoliposomes or liposome controls were centrifuged at 100,000 g for 30 min. in a TLA-100.3 rotor and resuspended in a smaller volume of outside buffer such that they could be added to a larger volume of 100 mM unlabeled amino acid (final concentration) supplemented with outside buffer components. […] At such high concentrations, it is important to adjust all amino acid solutions to pH 7.4. Assays were initiated by addition of 0.5 μM [^3H]arginine to the amino acid buffer solution followed by the addition of SLC38A9.1 proteoliposomes or liposome controls.
For steady-state kinetics experiments, time points were collected as described above and to assess substrate specificity, competition experiments were collected at 75 min. For efflux experiments, SLC38A9.1 proteoliposomes or liposome controls were loaded with [^3H]arginine as described above for an import assay for 1.5 hrs. To remove external amino acids, the reactions were applied to PD10 columns pre-equilibrated with outside buffer, and time points were collected as described above. Scintillation counts from liposome controls were subtracted from that of SLC38A9.1 proteoliposomes.

[1] = Solubility limit of amino acid in the transport assay solution; assay type: physicochemical
Experimental: as §1

mTORC1 = test: Amino acid-induced activation of the mTORC1 pathway in SLC38A9-null HEK-293T cells (immunoblot); assay type: cell-based; details: CRISPR/CAS9 knockout, starved 50 min, stimulated 10 min, range of concentrations
Experimental: FIGS. 5A-SE depict the results of experiments arginine and related immunoblots depicting impairment of induced activation of the mTORC1 pathway. FIG. 5A depicts the time dependent uptake of [^3H]-arginine by proteoliposomes containing SCL38A9.1. FIG. SB, left panel, depicts the time course of [^3H]arginine uptake, given fixed [^3H]arginine (0.5 μM) and increasing concentrations of unlabeled arginine. FIG. 5B, right panel, depicts velocity, calculated from left panel, as a function of total arginine concentration. Data were fitted to the Michaelis-Menton equation. FIG. 5C depicts the time-dependent efflux of SLC38A9.1 proteoliposomes following 1.5 hr loading with 0.5 μM [^3H]arginine. FIG. 5D depicts the competition of 0.5 μM [^3H]arginine transport by SLC38A9.1 using 100 mM of indicated unlabeled amino acids. The error bars in FIGS. 5A-5D represent standard deviation derived from at least 3 measurements. […]
HEK-293T cells (750,000/well) were plated into 6 well dishes and transfected 16 hours later with 1 μg of pX459 expressing above guides using XtremeGene9. […] Clones were expanded and evaluated for knockout status by western analysis for SLC38A9. These clones were evaluated for amino acid response as described above.

[2] = substrate: N=C(N)NCCC[C@H](N)C(=O)O; test: Steady-state kinetics of [3H]arginine uptake by SLC38A9.1 proteoliposomes; assay type: biochemical, human; details: other: [3H]arginine 0.5 μM plus increasing unlabeled arginine, 30° C.
Experimental: HEK-293T cells stably expressing FLAG-SLC38A9.1 were harvested as described above for immunoprecipitations, except cells were lysed in 40 mM HEPES pH 7.4, 0.5% Triton X-100, 1 mM DTT, and protease inhibitors. Following a 3 hr. immunoprecipitation, FLAG-affinity beads were washed twice for 5 min each in lysis buffer supplemented with 500 mM NaCl. Beads were equilibrated with inside buffer (20 mM MES pH 5, 90 mM KCl 10 mM NaCl) supplemented with 10% glycerol by washing them 5 times. FLAG-affinity purified SLC38A9.1 protein was eluted in glycerol-supplemented inside buffer containing 1 mg/mL FLAG peptide by rotation for 30 min. Protein was concentrated using Amicon centrifuge filters to about 1 mg/mL and snap-frozen in liquid nitrogen and stored at −80° C.
To form liposomes, chloroform-dissolved phosphatidylcholine (PC, 50 mg) was evaporated using dry nitrogen to yield a lipid film in a round bottom flask and desiccated overnight under vacuum. Lipids were hydrated in inside buffer at 50 mg/mL with light sonication in a water bath (Branson M2800H) and split into 100 μL aliquots in Eppendorf tubes. Aliquoted lipids were clarified using water bath sonication and recombined and extruded through a 100 nm membrane with 15 passes (Avanti 61000). […]

| Molecule | competition of radiolabelled arginine transport (SLC38A9.1) | activation of mTORC1 by the amino acid in SLC38A9 knockouts vs control cells (mTORC1) | further results |
| --- | --- | --- | --- |
| N[C@@H](Cc1c[nH]cn1)C(=O)O [histidine] | competed radiolabelled arginine transport to similar degrees as arginine | – | – |
| CC(C)C[C@H](N)C(=O)O [leucine] | modest effect | only blunted | solubility [1]: ~130 mM (≈ 17.1 mg/mL) |
| NCC(=O)O [glycine] | least effective competitor | – | – |
| N=C(N)NCCC[C@H](N)C(=O)O [arginine] | – | strongly repressed at all arginine concentrations | – |
| NCCCC[C@H](N)C(=O)O [lysine] | competed radiolabelled arginine transport to similar degrees as arginine | – | – |
| B1 | – | – | Km [2]: 39 mM; kcat [2]: 0.03 s⁻¹ |
